Test results reported in patent publication US7696166B2, “Use of cyclosporin alkyne/alkene analogues for preventing or treating viral-induced disorders” (Albany Molecular Research, Inc., priority 2006, dated 2010).
Converted amounts (≈) assume the structure as drawn. “Also recorded” adds a separate entry of the source.

Experiments:
HIV-1 = conditions: literature reports, background; cited from earlier work
hepatitis C virus = conditions: Paeshuyse et al. 2005; cited from earlier work
cyclophilin A = cyclophilin A (Homo sapiens, UniProt P62937); conditions: background; cited from earlier work
[1] = tested on: concanavalin A-stimulated murine splenocytes; experiment: Concanavalin A (ConA)-stimulated murine splenocyte assay; type: cell-based, BALB/c mice; conditions: for IC50: novel cyclosporin alkyne analogue, ConA-stimulated murine splenocytes, [3H]thymidine incorporation
Experimental: Male BALB/c mice, at 5 to 7 weeks of age, were sacrificed by CO2 inhalation. Spleens were removed and dissociated by pushing through a nylon cell strainer. The splenocytes were washed in RPMI 1640/5% fetal calf serum (FCS) and pelleted at 400×g. Red blood cells were then lysed by resuspending the cell pellet in ACK lysis buffer (150 mM NH4Cl, 1 mM KHCO3, 0.1 mM EDTA, 3 mL per spleen) for 10 min at room temperature. After pelleting at 400×g, the cells were washed by resuspending in RPMI 1640/5% FCS and repelleting. The cell pellet was resuspended in RPMI 1640/5% FCS and again passed through a cell strainer to remove cell aggregates. The cells were then counted and adjusted to 2×10^6 cells/ml in RPMI 1640/10% FCS/50 μM 2-mercaptoethanol. Cell viability was assessed by Trypan blue staining. Cyclosporin A or the test compound and two micrograms of concanavalin A were added to the wells of a 96 well plate, prior to the addition of 2×10^5 splenocytes. The cells were cultured in a 37° C. CO2 incubator for 2 days and then pulsed with 1 μCi of [^3H]thymidine for 6 hours. Cells were harvested onto filtermats with a TomTec 96 well plate harvester and lysed with H2O. The filtermat and scintillation fluid were sealed in a plastic sleeve. [^3H]thymidine incorporation was measured with a Wallac Trilux plate counter. Initial screens were done at a fixed value of 100 ng/ml test compound. IC50s were calculated from 7 point concentration-response curves using GraphPad software.

[2] = cited from earlier work
calcineurin = conditions: background; cited from earlier work

Sequence of cyclophilin A (P62937 whole entry): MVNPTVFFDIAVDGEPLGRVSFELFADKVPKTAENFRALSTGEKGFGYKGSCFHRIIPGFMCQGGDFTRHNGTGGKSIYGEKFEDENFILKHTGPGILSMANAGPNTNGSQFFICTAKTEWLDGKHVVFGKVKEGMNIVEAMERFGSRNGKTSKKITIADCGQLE

C/C=C/C[C@@H](C)[C@@H](O)[C@H]1C(=O)N[C@@H](CC)C(=O)N(C)[C@H](C)C(=O)N(CC)[C@@H](C(C)C)C(=O)N[C@@H](C(C)C)C(=O)N(C)[C@@H](CC(C)C)C(=O)N[C@@H](C)C(=O)N[C@H](C)C(=O)N(C)[C@@H](CC(C)C)C(=O)N(C)[C@@H](CC(C)C)C(=O)N(C)[C@@H](C(C)C)C(=O)N1C [DEBIO-025]
anti-HIV-1 activity (HIV-1): effective for the treatment of HIV-1 | inhibition of hepatitis C virus replication (hepatitis C virus): potent and selective inhibition | binding affinity for cyclophilin A (cyclophilin A): potent binding affinity

CCC1NC(=O)C(C(O)C(C)CC=CC#CBr)N(C)C(=O)C(C(C)C)N(C)C(=O)C(CC(C)C)N(C)C(=O)C(CC(C)C)N(C)C(=O)C(C)NC(=O)C(C)NC(=O)C(CC(C)C)N(C)C(=O)C(C(C)C)NC(=O)C(CC(C)C)N(C)C(=O)CN(C)C1=O (centres unmarked) [Example 15, cyclosporin alkynyl bromide]
IC50 [1]: 8 ng/mL

CC[C@@H]1NC(=O)[C@H]([C@H](O)[C@H](C)C/C=C/C#CC2CC2)N(C)C(=O)[C@H](C(C)C)N(C)C(=O)[C@H](CC(C)C)N(C)C(=O)[C@H](CC(C)C)N(C)C(=O)[C@@H](C)NC(=O)[C@H](C)NC(=O)[C@H](CC(C)C)N(C)C(=O)[C@H](C(C)C)NC(=O)[C@H](CC(C)C)N(C)C(=O)CN(C)C1=O [Example 33, cyclosporin cyclopropyl alkyne]
potency in immunosuppression compared to cyclosporin A and ISATX247 ([1]; FIG. 1 legend): enhanced or similar potency | IC50 [1]: 9 ng/mL (≈ 7.18 nM)

C/C=C/C[C@@H](C)[C@@H](O)[C@H]1C(=O)N[C@@H](CC)C(=O)N(C)CC(=O)N(C)[C@@H]([C@@H](C)CC)C(=O)N[C@@H](C(C)C)C(=O)N(C)[C@@H](CC(C)C)C(=O)N[C@@H](C)C(=O)N[C@H](C)C(=O)N(C)[C@@H](CC(C)C)C(=O)N(C)[C@@H](CC(C)C)C(=O)N(C)[C@@H](C(C)C)C(=O)N1C [SDZ NIM 811]
immunosuppressive activity ([2]; Mlynar et al. 1997, background): completely devoid of immunosuppressive activity; also recorded: none of the immunosuppressive activity | anti-HIV-1 activity (HIV-1): potent and selective anti-HIV-1 activity | inhibition of calcineurin (calcineurin): does not inhibit

CC#CC[C@@H](C)[C@@H](O)[C@H]1C(=O)N[C@@H](CC)C(=O)N(C)CC(=O)N(C)[C@@H](CC(C)C)C(=O)N[C@@H](C(C)C)C(=O)N(C)[C@@H](CC(C)C)C(=O)N[C@@H](C)C(=O)N[C@H](C)C(=O)N(C)[C@@H](CC(C)C)C(=O)N(C)[C@@H](CC(C)C)C(=O)N(C)[C@@H](C(C)C)C(=O)N1C [known cyclosporin alkyne]
relative immunosuppressive activity compared to cyclosporin A ([2]; Rich et al., J. Med. Chem. 33:999-1009 (1990)): 10%

cyclosporin alkynyl iodide [Example 13]
IC50 [1]: 1 ng/mL
